In patent US6911477B2, “Muscarinic receptor agonists” (Pfizer Inc., priority 1996, dated 2005) one finds melting point data, which are given here for 24 molecules.

Counter-ions that a name gives are not always drawn.

Broadly, the melting point is the temperature of the solid-liquid transition.

`Cc1cccc(C)c1C(=Nc1ccc(F)cc1)NC(=Nc1cccc(N)c1)N1CCCCC1C` (stereo not drawn) (as salt: hydrochloride) [Example 70, N-[(3-amino-phenylimino)-(2-methyl-piperidin-1-yl)-methyl]-N′-(4-fluoro-phenyl)-2,6-dimethyl-benzamidine] registered a melting point of 210 to 213 °C.

Consider `Cc1ccccc1C(=NC(=Nc1ccccc1)N1CCC(=O)CC1)Nc1ccc(F)cc1` (as salt: hydrochloride) [Example 8, N-(4-Fluoro-phenyl)-2-methyl-N′-[(4-oxo-piperidin-1-yl)-phenylimino-methyl]-benzamidine], for which the melting point was in the range of 234 to 235 °C.

`Cc1ccccc1C(=CC(=NC1CCCCC1)N1CCCCO1)Nc1ccc(F)cc1` (as salt: hydrochloride) [Example 95, (3-cyclohexylimino-3-[1,2]oxazinan-2-yl-1-o-tolyl-propenyl)-(4-fluoro-phenyl)-amine] showed a melting point of 171 to 172 °C.

In turn, `Cc1cccc(C)c1C(=Nc1ccc(F)cc1)NC(=Nc1ccc(F)cc1)N1CCCCCC1` (as salt: hydrochloride) [Example 49, N-[azepan-1-yl-(4-fluoro-phenylimino)-methyl]-N′-(4-fluoro-phenyl)-2,6-dimethyl-benzamidine] showed a melting point of 155 to 157 °C.

Consider `CC1CCCCN1C(=Nc1ccccc1)NC(=Nc1ccccc1)c1ccccc1` (stereo not drawn) (as salt: hydroiodid) [Example 33, N-[(2-methyl-piperidin-1-yl)-phenylimino-methyl]-N′-phenyl-benzamidine], for which the melting point fell in the range of 180 to 182 °C.

In the case of `c1ccc(N=C(N=C(Nc2ccccc2)c2ccccc2)N2CCCCC2)cc1` (as salt: hydroiodid) [Example 12, N-phenyl-N′-(phenylimino-piperidin-1-yl-methyl)-benzamidine], the melting point was 198 to 200 °C (dec.).

With `CCC1CCCCN1C(=Nc1ccccc1)NC(=Nc1ccc(F)cc1)c1c(C)cccc1C` (stereo not drawn) (as salt: hydrochloride) [Example 58, N-[(2-ethyl-piperidin-1-yl)-phenylimino-methyl]-N′-(4-fluoro-phenyl)-2,6-dimethyl-benzamidine], the melting point is 137 to 139 °C (dec.).

For the molecule `Fc1ccc(N=C(NC(=Nc2ccc(F)cc2)N2CCCCCC2)c2c(F)cccc2F)cc1` (as salt: hydrochloride) [Example 57, N-[azepan-1-yl-(4-fluoro-phenylimino)-methyl]-2,6-difluoro-N′-(4-fluoro-phenyl)-benzamidine], the melting point is 216 to 218 °C.

Regarding `Cc1ccccc1C(=NC(=Nc1ccncc1)N1CCCCC1C)Nc1ccc(F)cc1` (stereo not drawn) (as salt: nitrate) [Example 40, N-(4-fluoro-phenyl)-2-methyl-N′-[(2-methyl-piperidin-1-yl)-(pyridin-4-ylimino)-methyl]-benzamidine], the melting point was 209 to 210 °C (dec.).

Regarding `Cc1cccc(C)c1C(=NC(=Nc1ccccc1)N1CCCCO1)Nc1ccc(F)cc1` (as salt: hydrochloride) [Example 61, N-(4-fluoro-phenyl)-2,6-dimethyl-N′-([1,2]oxazinan-2-yl-phenylimino-methyl)-benzamidine], the melting point is 212 to 214 °C (dec.).

`Fc1ccc(NC(=CC(=NC2CC2)N2CCCCO2)c2ccccc2)cc1` (as salt: nitrate) [Example 110, (3-cyclopropylimino-3-[1,2]oxazinan-2-yl-1-phenyl-propenyl)-(4-fluoro-phenyl)-amine] yielded a melting point of 82 to 84 °C.

The molecule `CC1CCCCN1C(=Nc1ccccc1)NC(=Nc1ccccc1)c1ccccc1` (stereo not drawn) (as salt: hydroiodid) [Example 32, N-[(2-methyl-piperidin-1-yl)-phenylimino-methyl]-N′-phenyl-benzamidine] had a melting point of 181 to 183 °C.

`CC1CCCC(C)N1C(=Nc1ccc(F)cc1)NC(=Nc1ccc(F)cc1)c1c(F)cccc1F` (stereo not drawn) (as salt: nitrate) [Example 52, N-[(2,6-dimethyl-piperidin-1-yl)-(4-fluoro-phenylimino)-methyl]-2,6-difluoro-N′-(4-fluoro-phenyl)-benzamidine] came in with a melting point of 172 to 174 °C.

On to `CC1CCN(C(=Nc2ccccc2)NC(=Nc2ccccc2)c2ccccc2)CC1` (as salt: hydroiodid) [Example 21, N-[(4-methyl-piperidin-1-yl)-phenylimino-methyl]-N′-phenyl-benzamidine], for which the melting point is 192 to 195 °C (dec.).

On to `CC1CCCCN1C(=Nc1ccccc1)NC(=Nc1ccccc1)c1ccccc1` (stereo not drawn) (as salt: hydroiodid) [Example 3, N-[(2-Methyl-piperidin-1-yl)-phenylimino-methyl]-N′-phenyl-benzamidine], for which the melting point was 219 to 221 °C (dec.).

Consider `COc1ccc(NC(=CC(=Nc2ccccc2)N2CCCCO2)c2ccccc2C)cc1` (as salt: hydrochloride) [Example 94, (3-phenylimino-3-[1,2]oxazinan-2-yl-1-o-tolyl-propenyl)-(4-methoxy-phenyl)-amine], for which the melting point is 192 to 194 °C.

Consider `c1ccc(N=C(N=C(Nc2ccccc2)c2ccccc2)N2CCSCC2)cc1` (as salt: hydroiodid) [Example 13, N-phenyl-N′-(phenylimino-thiomorpholin-4-yl-methyl)-benzamidine], for which the melting point is 216 to 218 °C (dec.).

Regarding `Cc1ccccc1C(=CC(=NC1CC1)N1CCCCO1)Nc1ccc(F)cc1` (as salt: hydrochloride) [Example 107, (3cyclopropylimino-3-[1,2]oxazinan-2-yl-1-o-tolyl-propenyl)-(4-fluoro-phenyl)-amine], the melting point is 140 to 142 °C (dec.).

The molecule `Cc1cccc(C)c1C(=Nc1ccc(F)cc1)NC(=NC1CC1)N1CCCCC1C` (stereo not drawn) (as salt: hydrochloride) [Example 103, N-[cyclopropylimino-(2-methyl-piperidin-1-yl)-methyl]-N′-(4-fluoro-phenyl)-2,6-dimethyl-benzamidine] registered a melting point of 219 to 220 °C.

`c1ccc(N=C(NC(=Nc2ccccc2)N2CCCCO2)c2ccccc2)cc1` (as salt: nitrate) [Example 4, N-([1,2]Oxazinan-2-yl-phenylimino-methyl)-N′-phenyl-benzamidine] returned a melting point of 187 to 190 °C.

In turn, `Cc1ccccc1C(=NC(=Nc1ccccc1)C1(C)CCCCC1)Nc1ccc(F)cc1` [Example 11, N-(4-Fluoro-phenyl)-2-methyl-N′-[(1-methyl-cyclohexyl)-phenylimino-methyl]-benzamidine] gave a melting point of 210 to 211 °C.

In turn, `Clc1ccccc1C(=NC(=Nc1ccccc1)N1CCCC1)Nc1ccccc1` (as salt: hydrochloride) [Example 30, 2-chloro-N-phenyl-N′-(phenylimino-pyrrolidin-1-yl-methyl)-benzamidine] registered a melting point of 228 to 230 °C.

On to `Cc1cccc(C)c1C(=Nc1ccc(F)cc1)NC(=Nc1ccccc1)N1C(C)CCCC1C` (stereo not drawn) (as salt: hydrochloride) [Example 59, N-[(2,6-dimethyl-piperidin-1-yl)-phenylimino-methyl]-N′-(4-fluoro-phenyl)-2,6-dimethyl-benzamidine], for which the melting point was 165 to 167 °C (dec.).

As to `COc1ccc(N=C(NC(=Nc2ccccc2)N2CCCCCC2)c2c(C)cccc2C)cc1` (as salt: hydrochloride) [Example 68, N-(azepan-1-yl-phenylimino-methyl)-N′-(4-methoxy-phenyl)-2,6-dimethyl-benzamidine], the melting point is 228 to 230 °C (dec.).
